Assay results: patent publication US20260285853A1, “COMPOUNDS AND METHODS FOR MODULATING SPLICING” (REMIX THERAPEUTICS INC., priority 2023, published 2026)

Key:
Type in all cases: cell-based
[1] = tested on: HTT mRNA; assay: Splicing RT-qPCR assay (THP), Table 2A; conditions: Table 2A (THP); for AC50: AJ mRNA increase, read-out: HTT AJ (increase in alternative junction mRNA, AC50); for IC50: CJ mRNA decrease, read-out: HTT CJ (decrease in canonical junction mRNA, IC50)
[2] = tested on: MYB mRNA; assay: Splicing RT-qPCR assay (THP), Table 2A; conditions: Table 2A (THP); for AC50: AJ mRNA increase, read-out: MYB AJ (increase in alternative junction mRNA, AC50); for IC50: CJ mRNA decrease, read-out: MYB CJ (decrease in canonical junction mRNA, IC50)
[3] = tested on: SH-SY5Y (human neuroblastoma) cells; assay: Cell viability, Cell Titer Glo 2.0 assay; conditions: read-out: Viability SHSY5Y.3 GI50
Procedure, shortened: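 Toxicity screen in SH-SY5Y cells. Compounds were serially diluted in DMSO and then in medium, giving 0.1% DMSO final. Viability was read with CellTiter-Glo 2.0 after 72 h at 37 °C, 5% CO2, against medium-only blank wells.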

[4] = tested on: MYB mRNA; assay: Gene panel canonical junction qPCR assay, decrease in CJ mRNA, Table 3; conditions: decrease in canonical junction (CJ) mRNA, gene panel qPCR, Table 3
Procedure, shortened: (§1)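 A673 (DMEM, 10% FBS, 15,000 cells/well) or K562 (IMDM, 10% FBS) cells treated 24 h at 37 °C with 11-point 3-fold dilutions, top 10 uM, DMSO ≤0.25%. Canonical exon-exon junction mRNA measured by RT-qPCR, normalized to GAPDH, GUSB or PPIA and DMSO (ΔΔCt); IC50 from 4-parameter logistic fit.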

[5] = tested on: HTT mRNA; assay: as above; conditions: decrease in canonical junction (CJ) mRNA, gene panel qPCR, Table 3
Procedure, shortened: as §1

Row | SMILES | AC50 [1] [µM] | IC50 [1] [µM] | AC50 [2] [µM] | IC50 [2] [µM] | GI50 [3] [µM] | IC50 [4] [µM] | IC50 [5] [µM]
1 | Cn1cc2cc(NC(=O)c3c(F)cc(N4CCC(NC5CC5)CC4)c4cn(C)nc34)c(OC3CC3)cc2n1 [Compound 438, N-[6-(cyclopropoxy)-2-methyl-indazol-5-yl]-4-[4-(cyclopropylamino)-1-piperidyl]-6-fluoro-2-methyl-indazole-7-carboxamide] | > 10 | > 10 | > 10 | > 10 | > 10 | > 10 | > 10
2 | Cn1cc2cc(NC(=O)c3c(F)cc(N4CCC(NC5CC5)CC4)c4cn(C)nc34)c(Cl)cc2n1 [Compound 439, N-(6-chloro-2-methyl-indazol-5-yl)-4-[4-(cyclopropylamino)-1-piperidyl]-6-fluoro-2-methyl-indazole-7-carboxamide] | > 10 | > 10 | > 10 | > 10 | > 10 | > 10 | > 10
3 | COc1cc2nc(C)cn2cc1NC(=O)c1cnc(N2CCC(NC3CC3)CC2)c2cn(C)nc12 [Compound 440, 4-[4-(cyclopropylamino)-1-piperidyl]-N-(7-methoxy-2-methyl-imidazo[1,2-a]-pyridin-6-yl)-2-methyl-pyrazolo[4,3-c]-pyridine-7-carboxamide] | 1 to 10 | 1 to 10 | < 0.1 | 0.1 to 1 | 0.1 to 1 | 0.1 to 1 | 1 to 10
4 | COc1cc2nn(C)cc2cc1NC(=O)c1c(NCCO)cc(N2CCC(NC3CC3)CC2)c2cn(C)nc12 [Compound 441, 4-[4-(cyclopropylamino)-1-piperidyl]-6-(2-hydroxyethylamino)-N-(6-methoxy-2-methyl-indazol-5-yl)-2-methyl-indazole-7-carboxamide] | 1 to 10 | 1 to 10 | 1 to 10 | 1 to 10 | 1 to 10 | 1 to 10 | 1 to 10
5 | COCCNc1cc(N2CCC(NC3CC3)CC2)c2cn(C)nc2c1C(=O)Nc1cc2cn(C)nc2cc1OC [Compound 442, 4-[4-(cyclopropylamino)-1-piperidyl]-6-(2-methoxyethylamino)-N-(6-methoxy-2-methyl-indazol-5-yl)-2-methyl-indazole-7-carboxamide] | > 10 | > 10 | > 10 | > 10 | 1 to 10 | > 10 | > 10
6 | COc1cc2nn(C)cc2cc1NC(=O)c1ccc(N2CCC(NC3CC3)CC2)c2cc(CO)nn12 [Compound 443, 4-(4-(cyclopropylamino)piperidin-1-yl)-2-(hydroxymethyl)-N-(6-methoxy-2-methyl-2H-indazol-5-yl)pyrazolo[1,5-a]pyridine-7-carboxamide 2,2,2-trifluoroacetate] | 0.1 to 1 | 0.1 to 1 | < 0.1 | 0.1 to 1 | 0.1 to 1 | 0.1 to 1 | 0.1 to 1
7 | COc1cc2nn(C)cc2cc1NC(=O)c1ccc(N2CCC(NC3CC3)CC2)c2cn(C)nc12 [Compound 444, 4-[4-(cyclopropylamino)-1-piperidyl]-N-(6-methoxy-2-methyl-indazol-5-yl)-2-methyl-indazole-7-carbox-amide] | 1 to 10 | 1 to 10 | < 0.1 | 0.1 to 1 | 0.1 to 1 | 0.1 to 1 | 1 to 10
8 | COc1cc2nn(C)cc2c(Cl)c1NC(=O)c1c(F)cc(N2CCC(NC3CC3)CC2)c2cn(C)nc12 [Compound 445, N-(4-chloro-6-methoxy-2-methyl-indazol-5-yl)-4-[4-(cyclopropylamino)-1-piperidyl]-6-fluoro-2-methyl-indazole-7-carboxamide 2,2,2-trifluoroacetate] | > 10 | > 10 | > 10 | > 10 | > 10 | > 10 | > 10
9 | COc1cc2nn(C)cc2cc1C#Cc1c(F)cc(N2CCC(NC3CC3)CC2)c2cn(C)nc12 [Compound 446, N-cyclo-propyl-1-[6-fluoro-7-[2-(6-methoxy-2-methyl-indazol-5-yl)-ethynyl]-2-methyl-indazol-4-yl]-piperidin-4-amine] | > 10 | 1 to 10 | > 10 | 1 to 10 | 1 to 10 | 1 to 10 | 1 to 10
10 | COc1c(NC(=O)c2c(F)cc(N3CCC(NC4CC4)CC3)c3cn(C)nc23)ccn2nc(C)cc12 [Compound 447, 4-(4-(cyclopropylamino)piperidin-1-yl)-6-fluoro-N-(4-methoxy-2-methylpyrazolo-[1,5-a]pyridin-5-yl)-2-methyl-2H-indazole-7-carboxamide 2,2,2-trifluoroacetate] | > 10 | > 10 | > 10 | 1 to 10 | 1 to 10 | 1 to 10 | > 10
11 | COc1cc2n[nH]cc2cc1NC(=O)c1c(F)cc(N2CCC(NC3CC3)CC2)c2cn(C)nc12 [Compound 449, 4-[4-(cyclopropylamino)-1-piperidyl]-6-fluoro-N-(6-methoxy-2H-indazol-5-yl)-2-methyl-indazole-7-carboxamide] | > 10 | > 10 | > 10 | > 10 | > 10 | > 10 | > 10
12 | COc1cc2nn(C)cc2cc1NC(=O)c1c(N)cc(N2CCC(NC3CC3)CC2)c2cn(C)nc12 [Compound 450, 6-amino-4-[4-(cyclopropylamino)-1-piperidyl]-N-(6-methoxy-2-methyl-indazol-5-yl)-2-methyl-indazole-7-carboxamide] | > 10 | > 10 | > 10 | > 10 | 1 to 10 | > 10 | > 10
13 | Cc1cc2cc(NC(=O)c3ccc(N4CCC(NC5CC5)CC4)c4cn(C)nc34)oc2c(C)n1 [Compound 451, 4-(4-(cyclopropylamino)piperidin-1-yl)-N-(5,7-dimethyl-furo-[2,3-c]pyridin-2-yl)-2-methyl-2H-indazole-7-carboxamide 2,2,2-trifluoroacetate] | > 10 | > 10 | 1 to 10 | 1 to 10 | 0.1 to 1 | 1 to 10 | > 10
14 | CCNC1CCN(c2ccc(C(=O)Nc3cn4cc(C)nc(C)c4c3OC)c3nn(C)cc23)CC1 [Compound 452, 4-(4-(ethylamino)-piperidin-1-yl)-N-(8-methoxy-1,3-dimethyl-pyrrolo[1,2-a]pyrazin-7-yl)-2-methyl-2H-indazole-7-carboxamide 2,2,2-trifluoroacetate] | > 10 | > 10 | > 10 | > 10 | 1 to 10 | > 10 | > 10
15 | Cc1cn2cc(NC(=O)c3c(F)cc(N4CCC(NC5CC5)CC4)c4cn(C)nc34)c(F)c2c(C)n1 [Compound 453, 4-[4-(cyclopropylamino)-1-piperidyl]-6-fluoro-N-(8-fluoro-1,3-dimethyl-pyrrolo[1,2-a]pyrazin-7-yl)-2-methyl-indazole-7-carboxamide] | > 10 | > 10 | < 0.1 | 0.1 to 1 | 1 to 10 | 0.1 to 1 | > 10
16 | COc1cc2nn(C)cc2cc1NC(=O)c1c(F)cc(NCC2CCNCC2)c2cn(C)nc12 [Compound 454, 6-fluoro-N-(6-methoxy-2-methyl-indazol-5-yl)-2-methyl-4-(4-piperidylmethylamino)indazole-7-carboxamide] | > 10 | > 10 | 1 to 10 | > 10 | > 10 | > 10 | > 10
17 | COc1cc2nn(C)cc2cc1NC(=O)c1c(F)cc(N2CC3(CNC3)C2)c2cn(C)nc12 [Compound 455, 4-(2,6-diazaspiro[3.3]-heptan-2-yl)-6-fluoro-N-(6-methoxy-2-methyl-indazol-5-yl)-2-methyl-indazole-7-carboxamide] | > 10 | > 10 | 1 to 10 | 1 to 10 | > 10 | 1 to 10 | > 10
18 | Cc1cc2cc(NC(=O)c3c(F)cc(N4CCC(NC5CC5)CC4)c4cn(C)nc34)oc2c(C)n1 [Compound 456, 4-[4-(cyclopropylamino)-1-piperidyl]-N-(5,7-dimethylfuro-[2,3-c]pyridin-2-yl)-6-fluoro-2-methyl-indazole-7-carboxamide] | > 10 | > 10 | < 0.1 | 0.1 to 1 | 1 to 10 | 0.1 to 1 | > 10
19 | COc1c(NC(=O)c2ccc(N3CCC(NC4CC4)CC3)c3cn(C)nc23)cn2cc(C)nc(C)c12 [Compound 457, 4-[4-(cyclopropylamino)-1-piperidyl]-N-(8-methoxy-1,3-dimethyl-pyrrolo[1,2-a]pyrazin-7-yl)-2-methyl-indazole-7-carboxamide] | 1 to 10 | 1 to 10 | 1 to 10 | 1 to 10 | 1 to 10 | 1 to 10 | 1 to 10
